Results published in patent publication US11707447B1.
Entries after “also recorded” stand apart in the source; their conditions may differ.

Tests used:
[1] = In vitro metabolic stability / psilocin release, human AB serum; type: in vitro ADME; conditions: AB serum
From the text: A fundamental evaluation in drug development is the assessment of absorption, distribution, metabolism, excretion, and pharmacokinetics (ADME/PK) (Eddershaw et al., 2000, Drug Discovery Today 5(9): 409-414). […] Drug stability upon exposure to human liver microsomes and liver S9 cellular fractions is a common in vitro assay to approximate in vivo, liver-based drug metabolism (Richardson et al., 2016 Drug Metabolism Letters 10:83-90). First-pass metabolism is also often approximated in vitro using intestinal microsome and cellular S9 fractions (Hatley et al., 2017, Biopharmaceuticals & Drug Disposition, 38(2):155-160). Further, it is well known that human serum, and particularly circulating serum esterases can contribute to systemic drug metabolism (Williams, F M 1987, Pharmacology and Therapeutics, 34:99-109). Many pharmacological agents are classified as prodrugs, as they undergo metabolic transformation in vivo upon administration to release the active drug compound into the systemic compartment (Zawilska J B, et al. 2013, Pharmacological Reports, 65:1-14). Psilocybin, a serotonergic psychedelic agent, is well known prodrug that is metabolized into the psychoactive product, psilocin (Dinis-Oliveira, R J 2017, Drug Metabolism Reviews, 49(1):84-91). To evaluate the capacity of test molecules to similarly serve as prodrugs of psilocin, time-dependent, metabolic stability assays using human AB serum, human intestinal microsomes (HIM), human intestinal S9 fractions (HIS9), human liver microsomes (HLM), human liver S9 fractions (HLS9), human alkaline phosphatase, and porcine esterase were performed. […] Liquid chromatography coupled mass spectrometry (LC-MS) was employed to track the conversion of the test molecules into psilocin. All intestinal and liver fractions and NADPH RapidStart reagent was purchased from Sekisui/XenoTech. Human AB serum was purchased from Sigma. […] Supernatants were analyzed for the presence of candidate prodrugs (parent molecule) and psilocin (the predicted metabolite) using Orbitrap LC-MS (Thermo Scientific) using previously described methods (Menéndez-Perdomo et al., 2021, J. Mass Spectrom., 56: e4683). […] Assay concentrations (μM) of both parent ‘prodrug’ molecule and psilocin metabolite, as quantified through LC-MS using routine standard curve procedures, were plotted as functions of assay time (minutes). The metabolism rate (T1/2) was determined from the metabolism curve plot using the one phase decay feature of GraphPad PRISM software (Version 9.2.0). The quantity of parent prodrug at time zero was set as 100%. […]

[2] = Mouse pharmacokinetic (PK) evaluation of drug metabolism to psilocin
5-HT2A receptor = target: T1, 5-HT2A receptor (Mus musculus, UniProt P35363); experiment: Drug-induced Head Twitch Response (HTR) in mice; type: in vivo; conditions: 1 mg/kg i.p., 15-to-30-minute window after dosing, vs vehicle
T1 construct: tissue Charles River; host or cells: whole animal, C57BL/6-Elite mice (brain neurons)

in vitro = in vitro ADME, human
From the text: A fundamental evaluation in drug development is the assessment of absorption, distribution, metabolism, excretion, and pharmacokinetics (ADME/PK) (Eddershaw et al., 2000, Drug Discovery Today 5(9): 409-414). […] Drug stability upon exposure to human liver microsomes and liver S9 cellular fractions is a common in vitro assay to approximate in vivo, liver-based drug metabolism (Richardson et al., 2016 Drug Metabolism Letters 10:83-90). First-pass metabolism is also often approximated in vitro using intestinal microsome and cellular S9 fractions (Hatley et al., 2017, Biopharmaceuticals & Drug Disposition, 38(2):155-160). Further, it is well known that human serum, and particularly circulating serum esterases can contribute to systemic drug metabolism (Williams, F M 1987, Pharmacology and Therapeutics, 34:99-109). Many pharmacological agents are classified as prodrugs, as they undergo metabolic transformation in vivo upon administration to release the active drug compound into the systemic compartment (Zawilska J B, et al. 2013, Pharmacological Reports, 65:1-14). Psilocybin, a serotonergic psychedelic agent, is well known prodrug that is metabolized into the psychoactive product, psilocin (Dinis-Oliveira, R J 2017, Drug Metabolism Reviews, 49(1):84-91). To evaluate the capacity of test molecules to similarly serve as prodrugs of psilocin, time-dependent, metabolic stability assays using human AB serum, human intestinal microsomes (HIM), human intestinal S9 fractions (HIS9), human liver microsomes (HLM), human liver S9 fractions (HLS9), human alkaline phosphatase, and porcine esterase were performed. […] Liquid chromatography coupled mass spectrometry (LC-MS) was employed to track the conversion of the test molecules into psilocin. All intestinal and liver fractions and NADPH RapidStart reagent was purchased from Sekisui/XenoTech. Human AB serum was purchased from Sigma. For intestine and liver metabolism assays, 2.5 μM candidate compounds were incubated in 400 μg/ml of each cellular fraction (HLM, HLS9, HIM, or HIS9) in 50 mM potassium phosphate buffer (pH 7.4) containing 3 mM MgCl2 and 1 mM EDTA supplemented with NADPH RapidStart at 37° C. Samples were taken at the start of the assay, and at every 20 minutes for 2 hours. Time-point samples were precipitated with 1:1 volume of acetonitrile to quench the reaction before centrifugation at 4000×g for 20 minutes. Supernatants were analyzed for the presence of candidate prodrugs (parent molecule) and psilocin (the predicted metabolite) using Orbitrap LC-MS (Thermo Scientific) using previously described methods (Menéndez-Perdomo et al., 2021, J. Mass Spectrom., 56: e4683). The serum assays were carried out in 10% human AB serum in 50 mM potassium phosphate buffer (pH 7.4) containing 3 mM MgCl2 and 1 mM EDTA. Bovine alkaline phosphatase assays were carried out using one unit of purified enzyme in 50 mM potassium phosphate buffer (pH 7.4) containing 3 mM MgCl2 and 1 mM EDTA. Porcine esterase assays were carried out using one unit of purified enzyme in 50 mM potassium phosphate buffer (pH 7.4) containing 3 mM MgCl2 and 1 mM EDTA. Assay concentrations (μM) of both parent ‘prodrug’ molecule and psilocin metabolite, as quantified through LC-MS using routine standard curve procedures, were plotted as functions of assay time (minutes). The metabolism rate (T1/2) was determined from the metabolism curve plot using the one phase decay feature of GraphPad PRISM software (Version 9.2.0). The quantity of parent prodrug at time zero was set as 100%.
Positive controls were first tested to ensure that assays were functioning properly.

[3] = Stability in enzyme-free control buffer; type: in vitro ADME; conditions: enzyme-free buffer pH 7.4
From the text: A fundamental evaluation in drug development is the assessment of absorption, distribution, metabolism, excretion, and pharmacokinetics (ADME/PK) (Eddershaw et al., 2000, Drug Discovery Today 5(9): 409-414). […] Drug stability upon exposure to human liver microsomes and liver S9 cellular fractions is a common in vitro assay to approximate in vivo, liver-based drug metabolism (Richardson et al., 2016 Drug Metabolism Letters 10:83-90). First-pass metabolism is also often approximated in vitro using intestinal microsome and cellular S9 fractions (Hatley et al., 2017, Biopharmaceuticals & Drug Disposition, 38(2):155-160). […] Supernatants were analyzed for the presence of candidate prodrugs (parent molecule) and psilocin (the predicted metabolite) using Orbitrap LC-MS (Thermo Scientific) using previously described methods (Menéndez-Perdomo et al., 2021, J. Mass Spectrom., 56: e4683). […] Assay concentrations (μM) of both parent ‘prodrug’ molecule and psilocin metabolite, as quantified through LC-MS using routine standard curve procedures, were plotted as functions of assay time (minutes). The metabolism rate (T1/2) was determined from the metabolism curve plot using the one phase decay feature of GraphPad PRISM software (Version 9.2.0). The quantity of parent prodrug at time zero was set as 100%.

[4] = 1 mg/kg oral of administered compound, mean ± SD
[5] = 3 mg/kg oral of administered compound, mean ± SD
[6] = 10 mg/kg oral of administered compound, mean ± SD

T1 sequence (P35363 whole entry): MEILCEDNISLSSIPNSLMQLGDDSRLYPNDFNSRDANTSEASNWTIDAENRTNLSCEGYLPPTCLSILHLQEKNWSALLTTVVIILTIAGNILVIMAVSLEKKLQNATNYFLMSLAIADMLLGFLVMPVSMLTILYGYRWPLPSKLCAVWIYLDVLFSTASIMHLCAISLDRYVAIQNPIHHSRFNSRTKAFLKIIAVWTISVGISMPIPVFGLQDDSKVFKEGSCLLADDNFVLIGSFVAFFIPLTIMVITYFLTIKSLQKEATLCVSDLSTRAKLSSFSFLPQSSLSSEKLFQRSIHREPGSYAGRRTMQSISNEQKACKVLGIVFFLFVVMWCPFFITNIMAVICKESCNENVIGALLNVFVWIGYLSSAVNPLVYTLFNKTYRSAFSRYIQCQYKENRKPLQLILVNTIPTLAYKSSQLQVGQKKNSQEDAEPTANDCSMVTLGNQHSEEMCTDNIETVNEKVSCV

CN(C)CCc1c[nH]c2cccc(OC(=O)OCc3ccccc3)c12 [B(II), reference compound]
metabolic stability / conversion to psilocin (in words) [1]: failed completely to dissociate | Plasma concentration of psilocin ([2]; 1 mg/kg oral of administered compound, 0.25 h, mean ± SD): 19.7 ± 5.50 ng/mL | Plasma concentration of psilocin ([2]; 1 mg/kg oral of administered compound, 0.5 h, mean ± SD): 11.9 ± 2.03 ng/mL | Plasma concentration of psilocin ([2]; 1 mg/kg oral of administered compound, 1 h, mean ± SD): 4.63 ± 0.788 ng/mL | Plasma concentration of psilocin ([2]; 1 mg/kg oral of administered compound, 2 h, mean ± SD): 2.20 ± 0.850 ng/mL | Plasma concentration of psilocin ([2]; 1 mg/kg oral of administered compound, 4 h, mean ± SD): 2.05 ± 0.359 ng/mL | Plasma concentration of psilocin ([2]; 1 mg/kg oral of administered compound, 6 h, mean ± SD): 0.739 ± 0.288 ng/mL | Plasma concentration of psilocin ([2]; 1 mg/kg oral of administered compound, 8 h, mean ± SD): 0.453 ± 0.0460 ng/mL | AUC0-tlast/Dose (plasma psilocin) [2, 4]: 21.0 ± 1.55 kg·ng·h/mL/mg | Cmax/Dose (plasma psilocin) [2, 4]: 19.7 ± 5.50 kg·ng/mL/mg | Plasma concentration of psilocin ([2]; 3 mg/kg oral of administered compound, 0.25 h, mean ± SD): 55.6 ± 8.67 ng/mL | Plasma concentration of psilocin ([2]; 3 mg/kg oral of administered compound, 0.5 h, mean ± SD): 32.3 ± 4.98 ng/mL | Plasma concentration of psilocin ([2]; 3 mg/kg oral of administered compound, 1 h, mean ± SD): 9.29 ± 3.05 ng/mL | Plasma concentration of psilocin ([2]; 3 mg/kg oral of administered compound, 2 h, mean ± SD): 7.67 ± 0.921 ng/mL | Plasma concentration of psilocin ([2]; 3 mg/kg oral of administered compound, 4 h, mean ± SD): 6.76 ± 2.13 ng/mL | Plasma concentration of psilocin ([2]; 3 mg/kg oral of administered compound, 6 h, mean ± SD): 2.41 ± 0.845 ng/mL | Plasma concentration of psilocin ([2]; 3 mg/kg oral of administered compound, 8 h, mean ± SD): 0.722 ± 0.368 ng/mL | AUC0-tlast/Dose (plasma psilocin) [2, 5]: 20.3 ± 2.78 kg·ng·h/mL/mg | Cmax/Dose (plasma psilocin) [2, 5]: 18.5 ± 2.89 kg·ng/mL/mg | Plasma concentration of psilocin ([2]; 10 mg/kg oral of administered compound, 0.25 h, mean ± SD): 306 ± 34.6 ng/mL | Plasma concentration of psilocin ([2]; 10 mg/kg oral of administered compound, 0.5 h, mean ± SD): 125 ± 16.3 ng/mL | Plasma concentration of psilocin ([2]; 10 mg/kg oral of administered compound, 1 h, mean ± SD): 49.6 ± 10.5 ng/mL | Plasma concentration of psilocin ([2]; 10 mg/kg oral of administered compound, 2 h, mean ± SD): 20.7 ± 1.42 ng/mL | Plasma concentration of psilocin ([2]; 10 mg/kg oral of administered compound, 4 h, mean ± SD): 31.4 ± 6.34 ng/mL | Plasma concentration of psilocin ([2]; 10 mg/kg oral of administered compound, 6 h, mean ± SD): 11.5 ± 1.43 ng/mL | Plasma concentration of psilocin ([2]; 10 mg/kg oral of administered compound, 8 h, mean ± SD): 6.38 ± 2.98 ng/mL | Plasma concentration of psilocin ([2]; 10 mg/kg oral of administered compound, 24 h, mean ± SD): 0.104 ng/mL | AUC0-tlast/Dose (plasma psilocin) [2, 6]: 28.2 ± 4.12 kg·ng·h/mL/mg | Cmax/Dose (plasma psilocin) [2, 6]: 30.6 ± 3.46 kg·ng/mL/mg | Head Twitch Response (in words) (5-HT2A receptor): elicit head twitching | metabolic stability / conversion to psilocin (in words) (in vitro; HLM): did not readily dissociate to psilocin under any conditions | metabolic stability / conversion to psilocin (in words) (in vitro; HLS9): did not readily dissociate to psilocin under any conditions

CN(C)CCc1c[nH]c2cccc(OP(=O)(O)O)c12 [psilocybin, reference compound]
metabolic stability / conversion to psilocin (in words) [1]: stable in serum with no conversion to psilocin | Plasma concentration of administered (parent) compound ([2]; 1 mg/kg i.v., 0.5 h, individual mice): No Peak | Plasma concentration of administered (parent) compound ([2]; 1 mg/kg i.v., 1 h, individual mice): No Peak | Plasma concentration of administered (parent) compound ([2]; 1 mg/kg i.v., 2 h, individual mice): No Peak | Plasma concentration of administered (parent) compound ([2]; 1 mg/kg i.v., 4 h, individual mice): No Peak | Plasma concentration of administered (parent) compound ([2]; 1 mg/kg i.v., 6 h, individual mice): No Peak | Plasma concentration of administered (parent) compound ([2]; 1 mg/kg i.v., 8 h, individual mice): No Peak | tmax (parent compound in plasma) ([2]; 1 mg/kg i.v., individual mice): 5 min | tmax (parent compound in plasma) ([2]; 1 mg/kg i.v., mean ± SD): 5 ± 0 min | Plasma concentration of psilocin ([2]; 1.56 mg/kg oral of administered compound, 24 h, individual mice): BLQ | Plasma concentration of psilocin ([2]; 3 mg/kg oral of administered compound, 24 h, individual mice): BLQ | concentration at 5 min ([2]; male, C57Bl/6, mouse, plasma, intravenous, 1 mg/kg, Plasma concentration of administered (parent) compound, 1 mg/kg i.v., 5 min, mean ± SD): 144 ± 167 ng/mL | concentration at 0.25 h ([2]; male, C57Bl/6, mouse, plasma, intravenous, 1 mg/kg, Plasma concentration of administered (parent) compound, 1 mg/kg i.v., 0.25 h, mean ± SD): 13.2 ± 12.5 ng/mL | concentration at 0.5 h ([2]; male, C57Bl/6, mouse, plasma, intravenous, 1 mg/kg, Plasma concentration of administered (parent) compound, 1 mg/kg i.v., 0.5 h, mean ± SD): 4.28 ng/mL | concentration at 1 h ([2]; male, C57Bl/6, mouse, plasma, intravenous, 1 mg/kg, Plasma concentration of administered (parent) compound, 1 mg/kg i.v., 1 h, individual mice): 1.21 ng/mL | concentration at 1 h ([2]; male, C57Bl/6, mouse, plasma, intravenous, 1 mg/kg, Plasma concentration of administered (parent) compound, 1 mg/kg i.v., 1 h, mean): 1.21 ng/mL | concentration at 8 h ([2]; male, C57Bl/6, mouse, plasma, intravenous, 1 mg/kg, Plasma concentration of administered (parent) compound, 1 mg/kg i.v., 8 h, individual mice): 2.54 ng/mL | Cmax ([2]; male, C57Bl/6, mouse, plasma, iv, 1 mg/kg, Cmax (parent compound in plasma), 1 mg/kg i.v., mean ± SD): 144 ± 167 ng/mL | detectability of administered compound in plasma (in words) ([2]; oral vs i.v. dosing): only detectable in i.v. administered animals; also recorded: not detectable in orally administered animals at any dose | metabolic stability / conversion to psilocin (in words) (in vitro; HLM): stable in liver fractions with no conversion to psilocin | metabolic stability / conversion to psilocin (in words) (in vitro; HLS9): stable in liver fractions with no conversion to psilocin | stability in assay buffer (in words) [3]: stability of psilocybin was confirmed in assay buffer
